Data reported in ChEMBL document CHEMBL3045835, “Comparative study of conventional and microwave-assisted synthesis of some Schiff bases and their potential as antimicrobial agents” (2012).
In brackets after ≈: the same amount, converted by molar mass.

Tests used:
Format in all cases: functional
[1] = test system: Pseudomonas aeruginosa; assay: Antibacterial activity against Pseudomonas aeruginosa MTCC 424 at 500 ug/ml after 18 hr by cup-plate method; settings: MTCC 424, 18 h, read-out: DIZ
[2] = test system: Pseudomonas aeruginosa; assay: Antibacterial activity against Pseudomonas aeruginosa MTCC 424 at 200 ug/ml after 18 hr by cup-plate method; settings: MTCC 424, 18 h, read-out: DIZ
[3] = test system: Pseudomonas aeruginosa; assay: Antibacterial activity against Pseudomonas aeruginosa MTCC 424 at 100 ug/ml after 18 hr by cup-plate method; settings: MTCC 424, 18 h, read-out: DIZ
[4] = test system: Micrococcus luteus; assay: Antibacterial activity against Micrococcus luteus MTCC 1538 at 1500 ug/ml after 18 hr by cup-plate method; settings: MTCC 1538, 18 h, read-out: DIZ
[5] = test system: Micrococcus luteus; assay: Antibacterial activity against Micrococcus luteus MTCC 1538 at 1000 ug/ml after 18 hr by cup-plate method; settings: MTCC 1538, 18 h, read-out: DIZ
[6] = test system: Micrococcus luteus; assay: Antibacterial activity against Micrococcus luteus MTCC 1538 at 500 ug/ml after 18 hr by cup-plate method; settings: MTCC 1538, 18 h, read-out: DIZ
[7] = test system: Micrococcus luteus; assay: Antibacterial activity against Micrococcus luteus MTCC 1538 at 200 ug/ml after 18 hr by cup-plate method; settings: MTCC 1538, 18 h, read-out: DIZ
[8] = test system: Micrococcus luteus; assay: Antibacterial activity against Micrococcus luteus MTCC 1538 at 100 ug/ml after 18 hr by cup-plate method; settings: MTCC 1538, 18 h, read-out: DIZ
[9] = test system: Bacillus pumilus; assay: Antibacterial activity against Bacillus pumilus MTCC 1456 at 1500 ug/ml after 18 hr by cup-plate method; settings: MTCC 1456, 18 h, read-out: DIZ
[10] = test system: Bacillus pumilus; assay: Antibacterial activity against Bacillus pumilus MTCC 1456 at 1000 ug/ml after 18 hr by cup-plate method; settings: MTCC 1456, 18 h, read-out: DIZ
[11] = test system: Bacillus pumilus; assay: Antibacterial activity against Bacillus pumilus MTCC 1456 at 500 ug/ml after 18 hr by cup-plate method; settings: MTCC 1456, 18 h, read-out: DIZ
[12] = test system: Bacillus pumilus; assay: Antibacterial activity against Bacillus pumilus MTCC 1456 at 200 ug/ml after 18 hr by cup-plate method; settings: MTCC 1456, 18 h, read-out: DIZ
[13] = test system: Bacillus pumilus; assay: Antibacterial activity against Bacillus pumilus MTCC 1456 at 100 ug/ml after 18 hr by cup-plate method; settings: MTCC 1456, 18 h, read-out: DIZ
[14] = test system: Bacillus subtilis; assay: Antibacterial activity against Bacillus subtilis MTCC 441 at 1000 ug/ml after 18 hr by cup plate method; settings: MTCC 441, 18 h, read-out: DIZ
[15] = test system: Bacillus subtilis; assay: Antibacterial activity against Bacillus subtilis MTCC 441 at 1500 ug/ml after 18 hr by cup plate method; settings: MTCC 441, 18 h, read-out: DIZ
[16] = test system: Bacillus subtilis; assay: Antibacterial activity against Bacillus subtilis MTCC 441 at 500 ug/ml after 18 hr by cup plate method; settings: MTCC 441, 18 h, read-out: DIZ
[17] = test system: Bacillus subtilis; assay: Antibacterial activity against Bacillus subtilis MTCC 441 at 200 ug/ml after 18 hr by cup plate method; settings: MTCC 441, 18 h, read-out: DIZ
[18] = test system: Bacillus subtilis; assay: Antibacterial activity against Bacillus subtilis MTCC 441 at 100 ug/ml after 18 hr by cup plate method; settings: MTCC 441, 18 h, read-out: DIZ
[19] = test system: Staphylococcus aureus; assay: Antibacterial activity against Staphylococcus aureus MTCC 1430 at 1500 ug/ml after 18 hr by cup-plate method; settings: MTCC 1430, 18 h, read-out: DIZ
[20] = test system: Staphylococcus aureus; assay: Antibacterial activity against Staphylococcus aureus MTCC 1430 at 1000 ug/ml after 18 hr by cup-plate method; settings: MTCC 1430, 18 h, read-out: DIZ
[21] = test system: Staphylococcus aureus; assay: Antibacterial activity against Staphylococcus aureus MTCC 1430 at 500 ug/ml after 18 hr by cup-plate method; settings: MTCC 1430, 18 h, read-out: DIZ
[22] = test system: Staphylococcus aureus; assay: Antibacterial activity against Staphylococcus aureus MTCC 1430 at 200 ug/ml after 18 hr by cup-plate method; settings: MTCC 1430, 18 h, read-out: DIZ
[23] = test system: Staphylococcus aureus; assay: Antibacterial activity against Staphylococcus aureus MTCC 1430 at 100 ug/ml after 18 hr by cup-plate method; settings: MTCC 1430, 18 h, read-out: DIZ
[24] = test system: Penicillium chrysogenum; assay: Antifungal activity against Penicillium chrysogenum MTCC 161 after 24 hr by broth dilution method; settings: MTCC 161, 24 h
[25] = test system: Aspergillus niger; assay: Antifungal activity against Aspergillus niger MTCC 2546 after 24 hr by broth dilution method; settings: MTCC 2546, 24 h
[26] = test system: Escherichia coli; assay: Antibacterial activity against Escherichia coli MTCC 1573 after 24 hr by broth dilution method; settings: MTCC 1573, 24 h
[27] = test system: Pseudomonas fluorescens; assay: Antibacterial activity against Pseudomonas fluorescens MTCC 2421 after 24 hr by broth dilution method; settings: MTCC 2421, 24 h

MIC [24]: 200 µg/mL (≈ 833 µM)
MIC [25]: 200 µg/mL (≈ 833 µM)
MIC [26]: 400 µg/mL (≈ 1670 µM)
MIC [27]: 200 µg/mL (≈ 833 µM)
Structure (SMILES): O=c1c(/C=N/c2nc[nH]n2)coc2ccccc12
zone of inhibition at 500 µg/mL [1]: 16 mm
zone of inhibition at 200 µg/mL [2]: 15 mm
zone of inhibition at 100 µg/mL [3]: 14 mm
zone of inhibition at 1500 µg/mL [4]: 23 mm
zone of inhibition at 1000 µg/mL [5]: 18 mm
zone of inhibition at 500 µg/mL [6]: 16 mm
zone of inhibition at 200 µg/mL [7]: 15 mm
zone of inhibition at 100 µg/mL [8]: 11 mm
zone of inhibition at 1500 µg/mL [9]: 21 mm
zone of inhibition at 1000 µg/mL [10]: 19 mm
zone of inhibition at 500 µg/mL [11]: 17 mm
zone of inhibition at 200 µg/mL [12]: 16 mm
zone of inhibition at 100 µg/mL [13]: 14 mm
zone of inhibition at 1000 µg/mL [14]: 18 mm
zone of inhibition at 1500 µg/mL [15]: 20 mm
zone of inhibition at 500 µg/mL [16]: 17 mm
zone of inhibition at 200 µg/mL [17]: 16 mm
zone of inhibition at 100 µg/mL [18]: 12 mm
zone of inhibition at 1500 µg/mL [19]: 19 mm
zone of inhibition at 1000 µg/mL [20]: 17 mm
zone of inhibition at 500 µg/mL [21]: 14 mm
zone of inhibition at 200 µg/mL [22]: 13 mm
zone of inhibition at 100 µg/mL [23]: 11 mm
